Measured values: patent publication US6365616B1, “Methimazole derivatives and tautomeric cyclic thiones to treat autoimmune diseases” (Sentron Medical, Inc., priority 1998, dated 2002)

How the values were obtained:
[1] = tested on: protein/DNA complex with Fragment 127 of the MHC class I 5′-flanking region; assay: Gel shift (EMSA) with downstream 127 class I probe, extracts from treated FRTL-5 cells; assay type: cell-based, rat; details: 5H cells treated 48 hours
Description: (§1) Cells were grown in 6H medium with 5 % calf serum for 6-7 days to 70-80% confluence, then shifted to 5H medium with 5 % calf serum for 5 days. TSH (1×10^−10 M), gamma-interferon (100 U/ml), MMI (5 mM), and different concentrations of MMI derivatives or tautomeric cyclic thiones (0.0001 to 10 mM) were added as appropriate for […]. Cells were then harvested and extracts were made by a modification of a method of Dignam, J., et al. Methods in Enzymology, 101:582-598 (1983). In brief, cells were harvested by scraping after being washed twice with cold phosphate-buffer saline (PBS). Subsequently they were pelleted, washed in cold PBS and then pelleted again. The pellet was resuspended in Dignam buffer C (20 mM Hepes buffer at pH 7.9, 1.5 mM MgCl2, 0.42 M NaCl, 25% glycerol, 0.5 mM dithiotreitol (DTT), 0.5 mM phenylmethylsulfonylfluoride (PMSF), 1 […] pepstatin). The final NaCl concentration was adjusted on the basis of cell pellet volume to 0.42 M and cells were lysed by repeated cycles of freezing and thawing. Extracts were then centrifuged at 10,000×g at 4° C. for 20 min. The supernatant was recovered, aliquoted and stored at −70° C.
Binding reactions were performed in a volume of 20 μl for 30 min at room temperature. The typical reaction mixture contained 1.5 fmol of ^32P DNA, 3 μg of cell extracts, 1 to 3 μg of poly (dI-dC) in 10 mM Tris-Cl (pH 7.9), 1 mM MgCl2, 1 mM DTT, 1 mM ethylenediamine tetra acetic acid (EDTA), and 5 % glycerol. After incubation, reaction mixtures were subjected to electrophoresis in 4% polyacrylamide gels for 90-120 min at 160 V in 0.5× TBE (Sambrook, J., et al., Molecular Cloning: A Laboratory Manual, 2nd ed. Cold Spring Harbor Press, NY, 2: 11.23-11.44 (1989)), then dried and autoradiographed. Probes were labeled with [α32P] deoxy CTP by Klenow enzyme (In Vitro labeling kit, Amersham) following the manufacturer's instructions, or by [γ^32P] ATP using T4 polynucleotide kinase. Labeled probes were then purified either through G-50 columns (5 prime→3 Prime) or on an 8% polyacrylamide gel.
FIG. 3 denotes the sequence of the downstream region of the PD1 promoter. The location of enhancer A (−180 to −170 bp), the interferon response element (IRE; −161 to −150 bp), and the cAMP response element (CRE; −107 to −100 bp) are noted. The downstream silencer is between −127 and −80 bp (Saji, et al., ibid, 20096-20107 (1997)). Using a 127 bp probe, −125 to +1 bp, MMI (lane 4) or TSH (lane 10) induce the formation of a rapidly migrating protein/DNA complex (FIG. 4) which is clearly evident 24 to 48 h after SH cells are treated. MMI derivatives can also increase this complex, as illustrated for compound 8 in FIG. 4 (lanes 1 to 3). The time most suitable for measurement is 24 to 48 h (FIG. 4) the complex can be quantitated by comparison to control (lane 7 or 9) using densitometry or the phosphoimager as noted earlier. In this case, the increase over control (set at 1) is measured in arbitrary units relative to the maximal increase induced by 5 mM MMI which is arbitrarily set at 10. The results using all 11 compounds in Table 1, each added to cells at different concentrations 48 hours before extracts were prepared, are summarized in Table 3.

[2] = tested on: γ-IFN-increased protein/DNA complex with DRα 5′-flanking region probe; assay: Gel shift (EMSA) with 137 class II probe, extracts from γ-IFN-treated FRTL-5 cells; assay type: cell-based, rat; details: 137 class II probe, γ-IFN-treated 5H cells
Description: as §1
Cell extracts to perform class II gel shift studies were prepared exactly as for class I studies (Dignam et al., ibid, 582-598 (1983); Giuliani C, et al., J. Biol. Chem. 270: 11453-11462 (1995); Saji M, et al., J. Biol. Chem. 272: 20096-20107 (1997); Montani, V., et al., Endocrinology 139: 280-289 (1998a); Montani, V., et al., Endocrinology 139: 290-302 (1998b)), with the exception that the extracts were from γ-interferon treated cells, usually 100 U/ml interferon for 24 to 48 hours. Similarly, electrophoretic mobility shift assays (EMSA) were performed in the same way. Oligonucleotides used for EMSA were synthesized (Operon Technologies, Inc.) or were purified from 2 % agarose gels using either QIAEX (Qiagen, Chatsworth, Calif.) or Jet Sorb (Genomed) following restriction enzyme treatment of chimeric HLA-DRα-CAT constructs (Montani et al., 1998a, b). The oligonucleotides were dephosphorylated with calf intestinal alkaline phosphatase, labeled with […] or with [γ-^32P]ATP using T4 polynucleotide kinase, then purified on an 8% native polyacrylamide gel (Giuliani C, et al., ibid, 11453-11462 (1995); Saji M, et al., ibid, 20096-20107 (1997); Sambrook J, et al., ibid, 2:11.23-11.44 (1989); Montani, V., et al., ibid, 280-289 (1998a), 290-302 (1998b)).
Binding reactions for class II EMSA used similar conditions as well. They were carried out in a volume of 20 μl for 30 min at room temperature. The reaction mixtures contained 1.5 fmol of [^32P]DNA, 3 μg cell extract and 1.5 to 3 μg poly(di-dC) in 10 mM Tris-Cl at pH 7.9, 1 mM MgCl2, 1 mM DTT, 1 mM EDTA, and 5% glycerol. Where indicated, unlabeled double- or single-stranded oligonucleotides were added to the binding reaction as competitors and incubated with the extract for 20 min at room temperature prior to the addition of labeled DNA. Similarly, in experiments using antiserum, extracts were also incubated in the same buffer containing antiserum or normal rabbit serum for 20 min at room temperature before being processed as above. Following incubations, reaction mixtures were subjected to electrophoresis on 3.5 or 5 % native polyacrylamide gels at 160 V in 0.5xTBE, at room temperature, for 1.5 to 2 h. Gels were dried and autoradiographed at -80° C overnight unless otherwise noted.
FIG. 7 depicts the effect of MMI on the ability of γ-IFN to increase the formation of protein/DNA complexes with the […] DR α5′-flanking region probe. The radiolabeled probe is the same as that used and diagrammatically presented in FIG. 6; it contains −137 bp to +45 bp of the 5′-flanking region of DRα-CAT chimera. Extracts were from FRTL-5 rat thyroid cells grown to near confluency in TSH, maintained 6 days in SH medium, then treated with 100 U/ml γ-IFN, 5 mM MMI, or both for the last 48 h before the experiment was terminated. […]

SMILES	% increase over control relative to the maximal (5 mM) MMI-increased silencer complex which is set at 10 ([1]; 10 μM) [%]	% increase over control relative to the maximal (5 mM) MMI-increased silencer complex which is set at 10 ([1]; 100 μM) [%]	% increase over control relative to the maximal (5 mM) MMI-increased silencer complex which is set at 10 ([1]; 1 mM) [%]	% increase over control relative to the maximal (5 mM) MMI-increased silencer complex which is set at 10 ([1]; 5 mM)	% inhibition of IFN-increased complex formation ([2]; 10 μM) [%]	% inhibition of IFN-increased complex formation ([2]; 100 μM) [%]	% inhibition of IFN-increased complex formation ([2]; 1 mM) [%]	% inhibition of IFN-increased complex formation ([2]; 5 mM)
O=[N+]([O-])c1ccc2[nH]c(S)nc2c1 [Compound 5, 2-Mercapto-5-nitrobenzimidazole]	0	0	0	Insol	0	0	45 ± 21	Insol
Cc1ccc2[nH]c(S)nc2c1 [Compound 6, 2-Mercapto-5-methylbenzimidazole]	0	0	3 ± 2	Insol	0	0	35 ± 18	Insol
